Source: ChEMBL document CHEMBL4270672, “Synthesis and Biological Evaluation of Fused Tricyclic Heterocycle Piperazine (Piperidine) Derivatives As Potential Multireceptor Atypical Antipsychotics” (J Med Chem, 2018)
pKi: −log10 of the molar value.

Key:
[1] = target: D(2) dopamine receptor (Rattus norvegicus, UniProt P61169)
[2] = target: T1, 5-hydroxytryptamine receptor 1A (Rattus norvegicus, UniProt P19327)
T1 sequence (P19327 whole entry): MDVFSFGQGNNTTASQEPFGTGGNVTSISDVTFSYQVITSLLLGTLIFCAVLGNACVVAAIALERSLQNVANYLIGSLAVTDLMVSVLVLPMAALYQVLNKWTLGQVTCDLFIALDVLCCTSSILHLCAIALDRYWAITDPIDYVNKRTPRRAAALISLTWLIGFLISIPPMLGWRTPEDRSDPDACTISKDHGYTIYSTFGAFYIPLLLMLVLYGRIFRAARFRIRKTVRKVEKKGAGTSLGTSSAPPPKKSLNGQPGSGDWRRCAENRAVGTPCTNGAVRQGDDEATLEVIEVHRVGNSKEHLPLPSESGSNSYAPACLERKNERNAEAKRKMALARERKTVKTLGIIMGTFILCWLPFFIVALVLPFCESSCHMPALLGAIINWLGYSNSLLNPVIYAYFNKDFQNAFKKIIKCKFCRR

[3] = target: 5-hydroxytryptamine receptor 2A (Rattus norvegicus, UniProt P14842); assay: Displacement of [3H]-ketanserine from serotonin 5-HT2A receptor in rat brain cortex homogenates incubated for 30 mins by liquid scintillation counting
5-hydroxytryptamine receptor 2A, sequence (P14842 whole entry): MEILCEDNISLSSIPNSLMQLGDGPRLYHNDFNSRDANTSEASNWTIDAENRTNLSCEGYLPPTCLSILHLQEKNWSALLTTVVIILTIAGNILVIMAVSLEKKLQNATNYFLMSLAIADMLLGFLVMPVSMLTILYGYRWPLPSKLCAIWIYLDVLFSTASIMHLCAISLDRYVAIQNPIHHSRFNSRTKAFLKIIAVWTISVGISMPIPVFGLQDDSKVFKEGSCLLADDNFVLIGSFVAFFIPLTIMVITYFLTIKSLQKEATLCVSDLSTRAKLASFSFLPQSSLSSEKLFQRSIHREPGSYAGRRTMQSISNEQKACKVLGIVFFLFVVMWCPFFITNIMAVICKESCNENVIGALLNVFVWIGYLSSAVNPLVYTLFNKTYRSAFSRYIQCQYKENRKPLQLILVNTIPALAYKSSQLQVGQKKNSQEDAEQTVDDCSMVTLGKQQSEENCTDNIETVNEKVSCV

D(2) dopamine receptor, sequence (P61169 whole entry): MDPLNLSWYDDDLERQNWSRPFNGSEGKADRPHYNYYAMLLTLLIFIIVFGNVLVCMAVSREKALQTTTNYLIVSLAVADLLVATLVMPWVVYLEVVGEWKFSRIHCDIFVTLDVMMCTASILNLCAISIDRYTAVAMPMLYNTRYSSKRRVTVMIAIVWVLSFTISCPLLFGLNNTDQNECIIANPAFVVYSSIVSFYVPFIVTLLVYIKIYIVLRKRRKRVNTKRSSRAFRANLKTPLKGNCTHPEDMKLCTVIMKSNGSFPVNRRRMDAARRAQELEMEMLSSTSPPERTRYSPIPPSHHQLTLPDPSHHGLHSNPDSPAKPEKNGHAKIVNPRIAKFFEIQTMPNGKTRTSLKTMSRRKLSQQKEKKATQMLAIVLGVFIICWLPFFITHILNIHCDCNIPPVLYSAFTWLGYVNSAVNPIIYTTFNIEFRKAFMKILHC

Compound	pKi [1]	pKi [2]	pKi [3]
O=C(CCCN1CCN(c2cccc(Cl)c2Cl)CC1)c1cc2c3c(c1)CCN3C(=O)CC2	6.98	7.27	7.42
O=C(CCCN1CCC(c2noc3cc(F)ccc23)CC1)c1cc2c3c(c1F)CCN3C(=O)CC2	7.74	7.72	7.66
O=C(CCN1CCC(c2noc3cc(F)ccc23)CC1)c1cc2c3c(c1)CCN3C(=O)CC2	7.71	7.79	7.76
CC1CC(=O)N2CCCc3cc(C(=O)CCCN4CCC(c5noc6cc(F)ccc56)CC4)cc1c32 (centres undefined)	7.21	7.37	7.49
O=C1CCc2cc(CCCN3CCC(c4noc5cc(F)ccc45)CC3)cc3c2N1CC3	7.33	7.41	7.53
O=C(CCCN1CCC(c2noc3cc(F)ccc23)CC1)c1cc2c3c(c1F)CCC(=O)N3CC2	7.72	7.60	7.75
O=C1CCc2cc(CCCCN3CCN(c4nsc5ccccc45)CC3)cc3c2N1CCC3	6.81	7.01	7.08
O=C(CN1CCC(c2noc3cc(F)ccc23)CC1)c1cc2c3c(c1)CCC(=O)N3CCC2	6.05	< 5.70	6.12
O=C1CCc2cc(C(O)CCN3CCC(c4noc5cc(F)ccc45)CC3)cc3c2N1CC3 (centres undefined)	7.71	7.53	7.22
O=C(CCCCN1CCC(c2noc3cc(F)ccc23)CC1)c1cc2c3c(c1)CCC(=O)N3CCC2	7.50	7.49	7.72
O=C(CCCN1CCC(c2noc3cc(F)ccc23)CC1)c1cc2c3c(c1)CCC(=O)N3CCC2	7.74	7.48	7.65
O=C(CCN1CCC(c2nc3ccccc3s2)CC1)c1cc2c3c(c1)CCC(=O)N3CCC2	6.06	6.41	6.76
O=C1CCc2cc(CCCCN3CCN(c4cccc(Cl)c4Cl)CC3)cc3c2N1CCC3	6.40	6.71	7.01
CC1CC(=O)N2CCCc3cc(CCCCN4CCC(c5noc6cc(F)ccc56)CC4)cc1c32 (centres undefined)	7.07	7.08	7.08
O=C1CCc2cc(C(O)CCN3CCC(c4noc5cc(F)ccc45)CC3)cc3c2N1CCC3 (centres undefined)	7.55	7.71	7.70
O=C1CCc2cc(CCCN3CCC(c4noc5cc(F)ccc45)CC3)cc3c2N1CCC3	7.35	7.23	7.13
O=C(CCN1CCC(c2noc3cc(F)ccc23)CC1)c1cc2c3c(c1)CCC(=O)N3CCC2	7.24	7.20	7.28
O=C(CCCCCN1CCC(c2noc3cc(F)ccc23)CC1)c1cc2c3c(c1)CCN3C(=O)CC2	7.05	6.77	7.46
O=C1CCc2cc(C(O)CCCN3CCC(c4noc5cc(F)ccc45)CC3)cc3c2N1CCC3 (centres undefined)	7.53	7.10	7.62
O=C1CCc2cc(CCCN3CCN(c4cccc(Cl)c4Cl)CC3)cc3c2N1CCC3	6.24	6.71	6.73
O=C1CCc2cc(CCCCN3CCC(c4noc5cc(F)ccc45)CC3)cc3c2N1CCC3	7.13	7.16	7.23
O=C1CCc2cc(CCCCCN3CCC(c4noc5cc(F)ccc45)CC3)cc3c2N1CC3	7.36	7.27	7.23

The next lines start with the values.

pKi [1]	pKi [2]	pKi [3]	Compound
6.72	7.07	6.76	Cc1cccc(N2CCN(CCC(=O)c3cc4c5c(c3)CCN5C(=O)CC4)CC2)c1C
< 5.70	6.02	6.75	COc1ccccc1N1CCN(CCC(=O)c2cc3c4c(c2)CCC(=O)N4CCC3)CC1
5.91	6.57	6.68	O=C(CCN1CCN(c2cccc(Cl)c2Cl)CC1)c1cc2c3c(c1)CCC(=O)N3CCC2
7.05	7.26	7.16	O=C(CCN1CCN(c2nsc3ccccc23)CC1)c1cc2c3c(c1)CCN3C(=O)CC2
6.74	6.89	7.14	O=C(CCN1CCN(c2nsc3ccccc23)CC1)c1cc2c3c(c1)CCC(=O)N3CCC2
5.73	6.71	6.68	Cc1cccc(N2CCN(CCC(=O)c3cc4c5c(c3)CCC(=O)N5CCC4)CC2)c1C
5.75	5.73	6.12	O=C(CCN1CCN(c2ccccc2)CC1)c1cc2c3c(c1)CCC(=O)N3CCC2
< 5.70	5.71	6.25	O=C(CCN1CCN(c2ncccn2)CC1)c1cc2c3c(c1)CCC(=O)N3CCC2
6.73	7.09	7.03	O=C(CCN1CCN(c2cccc(Cl)c2Cl)CC1)c1cc2c3c(c1)CCN3C(=O)CC2
< 5.70	5.79	6.14	O=C(CCN1CCN(c2ccc(Cl)cc2)CC1)c1cc2c3c(c1)CCC(=O)N3CCC2
5.78	5.78	6.17	O=C(CCN1CCN(c2ccccn2)CC1)c1cc2c3c(c1)CCC(=O)N3CCC2
7.30	7.50	7.30	O=C(CCCN1CCN(c2nsc3ccccc23)CC1)c1cc2c3c(c1)CCN3C(=O)CC2
6.24	6.32	6.41	N#Cc1ccc(N2CCN(CCC(=O)c3cc4c5c(c3)CCN5C(=O)CC4)CC2)c(F)c1
6.55	6.83	7.10	O=C(CCCN1CCN(c2cccc(Cl)c2Cl)CC1)c1cc2c3c(c1)CCC(=O)N3CCC2
6.73	6.77	7.23	Cc1cccc(N2CCN(CCCC(=O)c3cc4c5c(c3)CCC(=O)N5CCC4)CC2)c1C
7.04	6.82	7.06	O=C(CCCN1CCN(c2nsc3ccccc23)CC1)c1cc2c3c(c1)CCC(=O)N3CCC2
